Assays:
[1] = test system: rat alcoholic fatty liver; conditions: male Wistar rats; for TG (liver triglyceride): 1000 mg/5 ml/kg p.o., 38% ethyl alcohol 10 ml/kg p.o. 1 hour later, liver excised 6 hours after alcohol, mean ± S.E., n = 8-9
Procedure: Male Wistar rats, 7 weeks old, were used in fasted state.
The experiment was performed in a control group, drug treatment groups and a normal group, each consisting of 8 to 9 animals.
The treatment groups were orally dosed with GSH and DCE-Et-GS-iPr, each dissolved in distilled water, at the dose level of 1000 mg/5 ml/kg. The control group received 5 ml/kg of distilled water p.o. The normal group was also provided.
One hour after administration of the test substance, 10 ml/kg of 38% ethyl alcohol was orally administered to the animals for induction of fatty liver. The liver was excised 6 hours after administration of ethyl alcohol and the triglyceride (TG) was determined by the acetylacetone method.

rat hypertriglyceridemia = test: Effect on rat hypertriglyceridemia (Intralipid-induced), serum triglyceride; type: in vivo; conditions: male Wistar rats; for TG (serum triglyceride): 200 mg/2 ml/kg i.p., Intralipid 2 ml/kg i.v. 0.5 hour after dosing, blood 30 min after injection, mean ± S.E., n = 8-9; for triglyceride (TG) lowering effect (in words): 200 mg/kg i.p., versus control
Procedure: Intralipid (Otsuka Pharmaceutical Co., Ltd.) was used for induction of hypertriglyceridemia in rats.
The treatment groups were intraperitoneally dosed with glutathione (hereinafter referred to as GSH), S-(diethyl α, β-dicarboxyethyl)glutathione (hereinafter, DCE-Et-GS), S-(diethyl α, β-dicarboxyethyl)glutathione isopropyl ester (hereinafter, DCE-Et-GS-iPr) and S-(α, β-dicarbamoylethyl)glutathione (hereinafter, DCE-NH2 -GS), each dissolved in physiological saline. The dose was invariously 200 mg/2 ml/kg. The control group received 2 ml/kg of physiological saline i.p. The normal group was also provided.
Intralipid 2 ml/kg was injected into the tail vein 0.5 hour after administration of the test substance. Thirty minutes after the injection, the blood was collected and the serum triglyceride (TG) was determined.

[2] = test system: rat streptozotocin diabetes; test: Effect on rat streptozotocin diabetes, blood lipids; type: in vivo; conditions: STZ-diabetic male SD rats, 100 mg/2 ml/kg i.p. once a day, mean, n = 4-7; for Total Cholesterol Week 4: week 4, tail blood; for Total Cholesterol Week 8: week 8, tail blood; for Total Cholesterol Week 10: week 10, abdominal aorta blood
Procedure: Using male 4-week-old SD rats, streptozotocin (STZ), 70 mg/kg, was injected into the tail vein to construct a diabetes model. As test substances, DCE-GS, DCE-Et-GS and DCE-Et-GS-iPr, each dissolved in physiological saline, were respectively administered intraperitoneally in doses of 100 mg/2 ml/kg once a day. The control group received physiological saline, 2 ml/kg, i.p. The normal group was also provided.
At weeks 4 and 8 of treatment, the blood was collected from the tail and the total cholesterol was determined. Furthermore, at week 10, the blood was collected from the abdominal aorta for blood biochemical tests.

SMILES | TG (liver triglyceride) [1] | triglyceride (TG) lowering effect (in words) ([1]; 1000 mg/kg p.o., versus control) | TG (serum triglyceride) (rat hypertriglyceridemia) | triglyceride (TG) lowering effect (in words) (rat hypertriglyceridemia) | Total Cholesterol Week 4 [2] | Total Cholesterol Week 8 [2] | Total Cholesterol Week 10 [2] | TG (blood triglycerides) ([2]; week 10) | VLDL ([2]; week 10) | β-lipoproteins ([2]; week 10)
CCOC(=O)CC(SC[C@H](NC(=O)CC[C@H](N)C(=O)O)C(=O)NCC(=O)OC(C)C)C(=O)OCC (stereo partly drawn) [DCE-Et-GS-iPr, S-(diethyl α, β-dicarboxyethyl)glutathione isopropyl ester] | 10.7 ± 0.3 mg/g liver | significant triglyceride (TG) lowering effect | 66.1 ± 11 mg/dL | Significant triglyceride (TG) lowering effects | 113.9 mg/dL | 110.5 mg/dL | 120 mg/dL | 404 mg/dL | 106 mg/dL | 818 mg/dL
N[C@@H](CCC(=O)N[C@@H](CSC(CC(=O)O)C(=O)O)C(=O)NCC(=O)O)C(=O)O (stereo partly drawn) [DCE-GS, S-(α, β-dicarboxyethyl)glutathione] |  |  |  |  | 109.8 mg/dL | 118.2 mg/dL | 95 mg/dL | 406 mg/dL |  | 759 mg/dL
NC(=O)CC(SC[C@H](NC(=O)CC[C@H](N)C(=O)O)C(=O)NCC(=O)O)C(N)=O (stereo partly drawn) [DCE-NH2 -GS, S-(α, β-dicarbamoylethyl)glutathione] |  |  | 72.4 ± 6 mg/dL | Significant triglyceride (TG) lowering effects |  |  |  |  |  | 
N[C@@H](CCC(=O)N[C@@H](CS)C(=O)NCC(=O)O)C(=O)O [GSH, glutathione, reference compound] | 13.0 ± 0.4 mg/g liver |  | 150.4 ± 12 mg/dL |  |  |  |  |  |  | 
